Experiments:
[1] = Oral bioavailability in rat at 10 mg/kg; assay type: ADME, organism-based; settings: in vivo
[2] = biological target: T1, Calcitonin gene-related peptide type 1 receptor (Homo sapiens, UniProt O60894+Q16602); experiment: Antagonist activity at human CGRP receptor
[3] = biological target: T1, Calcitonin gene-related peptide type 1 receptor; experiment: Antagonist activity at human CGRP receptor in human SK-N-MC cells assessed as inhibition of CGRP-induced cAMP production; assay type: functional, cell-based
Callithrix jacchus [4] = experiment: Antimigraine activity in human CGRPalpha-induced migraine marmoset model assessed as reduction in facial blood flow at 5 mg/kg, sc administered 30 mins after CGRP stimulation and measured after 105 mins by laser doppler method relative to control; assay type: functional; parameters: scale not given: the % may be the effect or the level left; settings: time 135 min, 2.25 h
Callithrix jacchus [5] = experiment: Antimigraine activity in human CGRPalpha-induced migraine marmoset model assessed as reduction in facial blood flow at 5 mg/kg, sc administered 30 mins after CGRP stimulation and measured after 60 mins by laser doppler method relative to control; assay type: functional; parameters: scale not given: the % may be the effect or the level left; settings: time 90 min, 1.5 h
Callithrix jacchus [6] = experiment: Antimigraine activity in human CGRPalpha-induced migraine marmoset model assessed as reduction in facial blood flow at 5 mg/kg, sc administered 30 mins after CGRPalpha stimulation measured after 15 mins by laser doppler method relative to control; assay type: functional; parameters: scale not given: the % may be the effect or the level left; settings: time 45 min, 0.75 h
[7] = Protein binding human plasma assessed as unbound fraction; assay type: ADME, cell-free
[8] = Metabolic stability in dog liver microsomes assessed as half life; assay type: ADME, Canis lupus familiaris, Microsome
[9] = Metabolic stability in rat liver microsomes assessed as half life; assay type: ADME, Microsome
[10] = Metabolic stability in monkey liver microsomes assessed as half life; assay type: ADME, Macaca mulatta, Microsome; settings: rhesus monkey
[11] = Metabolic stability in human liver microsomes assessed as half life; assay type: ADME, Microsome

T1 sequence (Q16602 whole entry, one chain of several): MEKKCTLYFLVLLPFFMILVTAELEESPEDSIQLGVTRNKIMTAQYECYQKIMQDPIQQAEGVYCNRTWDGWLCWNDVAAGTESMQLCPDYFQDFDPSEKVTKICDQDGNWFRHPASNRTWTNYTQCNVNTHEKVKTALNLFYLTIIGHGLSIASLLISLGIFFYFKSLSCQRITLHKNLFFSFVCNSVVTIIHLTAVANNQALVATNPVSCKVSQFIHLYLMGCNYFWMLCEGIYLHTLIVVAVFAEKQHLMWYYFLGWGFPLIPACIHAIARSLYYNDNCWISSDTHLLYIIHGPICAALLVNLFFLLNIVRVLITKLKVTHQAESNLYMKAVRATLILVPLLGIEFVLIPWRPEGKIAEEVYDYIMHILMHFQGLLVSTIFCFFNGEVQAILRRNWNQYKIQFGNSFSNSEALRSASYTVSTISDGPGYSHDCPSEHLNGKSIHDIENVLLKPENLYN

Structure (SMILES) | bioavailability [1] | Ki [2] | also measured
O=C(C[C@@H]1Cc2cc(Cl)c3[nH]ncc3c2CN(CC(F)(F)F)C1=O)N1CCC(c2cc3ccccc3[nH]c2=O)CC1 | 3.4% | 0.54 nM | –
O=C(N[C@@H]1Cc2cc(Cl)c3[nH]ncc3c2CN(Cc2ccccc2)C1=O)N1CCC(N2Cc3ccccc3NC2=O)CC1 | – | 1 nM | –
O=C(N[C@@H]1Cc2ccc3[nH]ncc3c2CN(Cc2ccncc2)C1=O)N1CCC(N2Cc3ccccc3NC2=O)CC1 | – | 22 nM | –
O=C(N[C@@H]1Cc2ccc3[nH]ncc3c2CN(C2CCNCC2)C1=O)N1CCC(N2Cc3ccccc3NC2=O)CC1 | – | 290 nM | –
O=C(N[C@@H]1Cc2ccc3[nH]ncc3c2CN(Cc2ccccc2)C1=O)N1CCC(N2Cc3ccccc3NC2=O)CC1 | – | 12 nM | –
O=C(C[C@@H]1Cc2cc(Cl)c3[nH]ncc3c2CN(CC(F)(F)F)C1=O)N1CCC(N2CCc3cccc(F)c3NC2=O)CC1 | – | 9.2 nM | –
O=C(C[C@@H]1Cc2cc(Cl)c3[nH]ncc3c2CN(CC(F)(F)F)C1=O)N1CCC(n2c(=O)[nH]c3ccccc32)CC1 | – | 3.3 nM | –
CC(C)(C)CN1Cc2c(cc(Cl)c3[nH]ncc23)C[C@@H](NC(=O)N2CCC(N3Cc4ccccc4NC3=O)CC2)C1=O | – | 1.5 nM | –
CC(C)(C)CN1Cc2c(cc(Cl)c3[nH]ncc23)C[C@@H](CC(=O)N2CCC(N3Cc4ccccc4NC3=O)CC2)C1=O | 1.8% | 0.41 nM | –
O=C(C[C@@H]1Cc2cc(Cl)c3[nH]ncc3c2CN(CC(F)(F)F)C1=O)N1CCC(N2Cc3ccccc3NC2=O)CC1 | – | 0.23 nM | –
CN(C)CCN1Cc2c(ccc3[nH]ncc23)C[C@@H](NC(=O)N2CCC(N3Cc4ccccc4NC3=O)CC2)C1=O | – | 170 nM | –
CC(C)(C)CN1Cc2c(cc(Cl)c3[nH]ncc23)C[C@@H](CC(=O)N2CCC(c3cc4cccc(F)c4[nH]c3=O)CC2)C1=O | 12% | 6 nM | –
CC(C)(C)CN1Cc2c(cc(Cl)c3[nH]ncc23)C[C@@H](CC(=O)N2CCC(c3cc4ccccc4[nH]c3=O)CC2)C1=O | 4.5% | 0.75 nM | –
O=C(C[C@@H]1Cc2cc(Cl)c3[nH]ncc3c2CN(CC(F)(F)F)C1=O)N1CCC(N2CCc3ccccc3NC2=O)CC1 | 17% | 0.1 nM | IC50 [3]: 0.27 nM; Activity (Callithrix jacchus [4]): 47%; Activity (Callithrix jacchus [5]): 41%; Activity (Callithrix jacchus [6]): 27%; fraction unbound [7]: 0.028; half-life [8]: 3.1 min; half-life [9]: 2.2 min; half-life [10]: 2.4 min; half-life [11]: 3.6 min
CC(C)CN1Cc2c(ccc3[nH]ncc23)C[C@@H](NC(=O)N2CCC(N3Cc4ccccc4NC3=O)CC2)C1=O | – | 14 nM | –
O=C(C[C@@H]1Cc2cc(Cl)c3[nH]ncc3c2CN(CC(F)(F)F)C1=O)N1CCC(c2cc3cccc(F)c3[nH]c2=O)CC1 | – | 6 nM | –
CC(C)N1Cc2c(ccc3[nH]ncc23)C[C@@H](NC(=O)N2CCC(N3Cc4ccccc4NC3=O)CC2)C1=O | – | 59 nM | –
CC(C)(C)CN1Cc2c(ccc3[nH]ncc23)C[C@@H](NC(=O)N2CCC(N3Cc4ccccc4NC3=O)CC2)C1=O | – | 4.9 nM | –
O=C(N[C@@H]1Cc2ccc3[nH]ncc3c2CN(CCc2ccncc2)C1=O)N1CCC(N2Cc3ccccc3NC2=O)CC1 | – | 7.1 nM | –
O=C(C[C@@H]1Cc2cc(Cl)c3[nH]ncc3c2CN(CC(F)(F)F)C1=O)N1CCC(n2c(=O)[nH]c3ncccc32)CC1 | 5.5% | 0.09 nM | –
CN1Cc2c(ccc3[nH]ncc23)C[C@@H](NC(=O)N2CCC(N3Cc4ccccc4NC3=O)CC2)C1=O | – | 370 nM | –
O=C(N[C@@H]1Cc2ccc3[nH]ncc3c2CN(CCN2CCOCC2)C1=O)N1CCC(N2Cc3ccccc3NC2=O)CC1 | – | 50 nM | –
CC(C)(C)CN1Cc2c(cc(Cl)c3[nH]ncc23)C[C@@H](CC(=O)N2CCC(N3Cc4cccc(F)c4NC3=O)CC2)C1=O | 4.7% | 0.31 nM | –

Source: ChEMBL document CHEMBL4673257, “Azepino-indazoles as calcitonin gene-related peptide (CGRP) receptor antagonists” (Bioorg Med Chem Lett, 2021)
